# Results from patent publication US20200079758A1, “[4-(PHENYLSULFONYL)PIPERAZIN-1-YL](1H-1,2,3-TRIAZOL-4-YL)METHANONES” (priority 2016, published 2020).
# Biological target: T1, recombinant human AKR1C3 (Homo sapiens, UniProt P42330)
# T1 construct: GST (cleaved yes); made in house; host or cells: E. coli
# T1 sequence (P42330 1-323): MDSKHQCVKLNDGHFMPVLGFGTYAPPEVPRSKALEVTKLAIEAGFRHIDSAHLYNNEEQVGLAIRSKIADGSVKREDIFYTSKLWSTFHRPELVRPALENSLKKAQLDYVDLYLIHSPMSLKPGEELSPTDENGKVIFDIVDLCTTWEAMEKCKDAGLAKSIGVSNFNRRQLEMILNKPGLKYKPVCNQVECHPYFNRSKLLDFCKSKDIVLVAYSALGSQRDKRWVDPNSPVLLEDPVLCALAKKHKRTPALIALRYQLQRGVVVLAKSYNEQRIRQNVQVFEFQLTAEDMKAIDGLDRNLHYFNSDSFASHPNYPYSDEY
# Assay: AKR1C3-inhibitory activity assay (generation of Coumberol from Coumberone)
# Format: biochemical
# Details: Coumberone 0.3 μM, NADPH 10 μM, 22° C., typically 90 min, average or median values
# Protocol: The AKR1C3-inhibitory activity of the substances of the present invention was measured in the AKR1C3 assay described in the paragraphs below.
# Essentially, the enzyme activity is measured by quantification of the generation of Coumberol from Coumberone (Halim et al. J. AM. CHEM. SOC. 2008, 130:14123-14128 and Yee et al. Proc. Natl. Acad. Sci. USA 2006, 103:13304-13309). In this test, the increase of the highly fluorescent Coumberol by NADPH- (nicotinamide adenine dinucleotide phosphate)-dependent reduction of the non-fluorescent Coumberone by AKR1C3 was determined.
# The enzyme used was recombinant human AKR1C3 (Aldo-keto reductase family 1 member C3; GenBank Accession No. NM_003739). This was expressed in E. coli as GST (glutathione S transferase) fusion protein and purified by glutathione Sepharose affinity chromatography. The GST was removed by digestion with thrombin and subsequent size exclusion chromatography (Dufort, I., Rheault, P., Huang, X F., Soucy, P., and Luu-The, V., Endocrinology 140, 568-574 (1999)).
# For the assay, 50 nl of a 100-fold concentrated solution of the test substance in DMSO were pipetted into a black low-volume 384-well microtiter plate (Greiner Bio-One, Frickenhausen, Germany), 2.5 μl of a solution of AKR1C3 in assay buffer [50 mM potassium phosphate buffer pH 7, 1 mM DTT, 0.0022% (w/v) Pluronic F-127, 0.01% BSA (w/v) and protease inhibitor cocktail (Complete, EDTA-free Protease Inhibitor Cocktail from Roche)] were added and the mixture was incubated for 15 min to allow pre-binding of the substances to the enzyme prior to the enzyme reaction. The enzyme reaction was then started by addition of 2.5 μl of a solution of NADPH (20 μM→final concentration in 5 μl of assay volume is 10 μM) and Coumberone (0.6 μM→final concentration in 5 μl of assay volume is 0.3 μM) in assay buffer, and the resulting mixture was incubated at 22° C. for the reaction time of typically 90 min. The concentration of the AKR1C3 and the reaction time was adapted to the respective activity of the enzyme preparation and adjusted such that the assay was carried out in the linear range. Typical AKR1C3 concentrations were in the region of 1 nM. The reaction was stopped by addition of 2.5 μl of a stop solution consisting of 3 μM EM-1404 as inhibitor (U.S. Pat. No. 6,541,463) in 50 mM HEPES pH7.5 (3 μM EM-1404→final concentration in 7.5 μl of assay volume is 1 μM). The fluorescence of the Coumberole was then measured at 520 nm (excitation at 380 nm) using a suitable measuring instrument (Pherastar from BMG Labtechnologies). The intensity of the fluorescence was used as a measure of the amount of Coumberole formed and thus of the enzyme activity of AKR1C3. The data were normalized (enzyme reaction without inhibitor=0% inhibition; all other assay components, but no enzyme=100% inhibition).
row,Compound,IC50 [µM]
1,"CC1(C)CN(C(=O)c2c[nH]nn2)CCN1S(=O)(=O)c1cc(F)cc(F)c1 [Example 29, {4-[(3,5-difluorophenyl)sulfonyl]-3,3-dimethylpiperazin-1-yl}(1H-1,2,3-triazol-4-yl)methanone]",0.011
2,"CC1(C)CN(C(=O)c2cnn[nH]2)CCN1S(=O)(=O)c1ccc(F)cc1 [Example 30, {4-[(4-fluorophenyl)sulfonyl]-3,3-dimethylpiperazin-1-yl}(1H-1,2,3-triazol-5-yl)methanone]",0.071
3,"CC1(C)CN(C(=O)c2cnn[nH]2)CCN1S(=O)(=O)c1ccccc1Cl [Example 32, {4-[(2-chlorophenyl)sulfonyl]-3,3-dimethylpiperazin-1-yl}(1H-1,2,3-triazol-5-yl)methanone]",0.015
4,"Cc1cccc(S(=O)(=O)N2CCN(C(=O)c3cnn[nH]3)CC2(C)C)c1 [Example 33, {3,3-dimethyl-4-[(3-methylphenyl)sulfonyl]piperazin-1-yl}(1H-1,2,3-triazol-5-yl)methanone]",0.01
5,"CC1(C)CN(C(=O)c2cnn[nH]2)CCN1S(=O)(=O)c1ccccc1F [Example 34, {4-[(2-fluorophenyl)sulfonyl]-3,3-dimethylpiperazin-1-yl}(1H-1,2,3-triazol-5-yl)methanone]",0.016
6,"CC1(C)CN(C(=O)c2cnn[nH]2)CCN1S(=O)(=O)c1c(F)cccc1F [Example 35, {4-[(2,6-difluorophenyl)sulfonyl]-3,3-dimethylpiperazin-1-yl}(1H-1,2,3-triazol-5-yl)methanone]",0.046
7,"CC1(C)CN(C(=O)c2cnn[nH]2)CCN1S(=O)(=O)c1ccc(F)c(F)c1 [Example 36, {4-[(3,4-difluorophenyl)sulfonyl]-3,3-dimethylpiperazin-1-yl}(1H-1,2,3-triazol-5-yl)methanone]",0.026
8,"C[C@@H]1CN(C(=O)c2c[nH]nn2)C[C@H](C)N1S(=O)(=O)c1ccccc1 [Example 38, [(3R,5S)-3,5-dimethyl-4-(phenylsulfonyl)piperazin-1-yl](1H-1,2,3-triazol-4-yl)methanone]",0.014
9,"C[C@@H]1CN(C(=O)c2cnn[nH]2)C[C@H](C)N1S(=O)(=O)c1cccc(F)c1 [Example 41, {(3R,5S)-4-[(3-fluorophenyl)sulfonyl]-3,5-dimethylpiperazin-1-yl}(1H-1,2,3-triazol-5-yl)methanone]",0.009
10,"C[C@@H]1CN(C(=O)c2cnn[nH]2)C[C@H](C)N1S(=O)(=O)c1cc(F)cc(F)c1 [Example 42, {(3R,5S)-4-[(3,5-difluorophenyl)sulfonyl]-3,5-dimethylpiperazin-1-yl}(1H-1,2,3-triazol-5-yl)methanone]",0.009

# The next compounds have a lower IC50 than those just listed; values first:
row,IC50 [µM],Compound
1,0.003,"CC1(C)CN(C(=O)c2c[nH]nn2)CCN1S(=O)(=O)c1cccc(C(F)(F)F)c1 [Example 28, (3,3-dimethyl-4-{[3-(trifluoromethyl)phenyl]sulfonyl}piperazin-1-yl)(1H-1,2,3-triazol-4-yl)methanone]"
2,0.005,"Cc1ccccc1S(=O)(=O)N1CCN(C(=O)c2cnn[nH]2)CC1(C)C [Example 31, {3,3-dimethyl-4-[(2-methylphenyl)sulfonyl]piperazin-1-yl}(1H-1,2,3-triazol-5-yl)methanone]"
3,0.008,"CC1(C)CN(C(=O)c2cnn[nH]2)CCN1S(=O)(=O)c1cc(F)ccc1F [Example 37, {4-[(2,5-difluorophenyl)sulfonyl]-3,3-dimethylpiperazin-1-yl}(1H-1,2,3-triazol-5-yl)methanone]"
4,0.003,"C[C@@H]1CN(C(=O)c2cnn[nH]2)C[C@H](C)N1S(=O)(=O)c1cccc(Cl)c1 [Example 39, {(3R,5S)-4-[(3-chlorophenyl)sulfonyl]-3,5-dimethylpiperazin-1-yl}(1H-1,2,3-triazol-5-yl)methanone]"
5,0.002,"C[C@@H]1CN(C(=O)c2cnn[nH]2)C[C@H](C)N1S(=O)(=O)c1cc(Cl)cc(Cl)c1 [Example 40, {(3R,5S)-4-[(3,5-dichlorophenyl)sulfonyl]-3,5-dimethylpiperazin-1-yl}(1H-1,2,3-triazol-5-yl)methanone]"
